# From ChEMBL document CHEMBL1201862, “PubChem BioAssay data set” (2004)
#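 Values below derive from 48-hour exposures of cells grown in 96-well plates, with endpoints linearly interpolated between the two concentrations bracketing the appropriate inhibition level. The concentration for 50% growth inhibition is given as GI50.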 The source made the active and inactive calls. Rule as the data show it: active = GI50 up to about 1.1 µM and inactive = higher.
# Assays:
# Test in all cases: NCI anticancer screen, dose series, 48 h
# SR = system: SR
# K562 = system: K562
# HOP-92 = system: HOP-92
# CAKI-1 = system: CAKI-1
# SNB-19 = system: SNB-19
# SK-OV-3 = system: SK-OV-3
# MDA-N = system: MDA-N
# UO-31 = system: UO-31
# SNB-75 = system: SNB-75
# UACC-257 = system: UACC-257
# 786-0 = system: 786-0
# RXF 393 = system: RXF 393
# SF-268 = system: SF-268
# HCT-116 = system: HCT-116
# A549 = system: A549
# NCI-H522 = system: NCI-H522
# NCI-H226 = system: NCI-H226
# T47D = system: T47D
# OVCAR-4 = system: OVCAR-4
# COLO 205 = system: COLO 205
# OVCAR-8 = system: OVCAR-8
# PC-3 = system: PC-3
# EKVX = system: EKVX
# SN12C = system: SN12C
# M14 = system: M14
# SF-539 = system: SF-539
# MDA-MB-435 = system: MDA-MB-435
# OVCAR-3 = system: OVCAR-3
# DU-145 = system: DU-145
# HCC 2998 = system: HCC 2998
# KM12 = system: KM12
# HCT-15 = system: HCT-15
# SF-295 = system: SF-295
# SK-MEL-2 = system: SK-MEL-2
# CCRF-CEM = system: CCRF-CEM
# U-251 = system: U-251
# MCF7 = system: MCF7
# A498 = system: A498
# BT-549 = system: BT-549
# HT-29 = system: HT-29
# OVCAR-5 = system: OVCAR-5
# UACC-62 = system: UACC-62
# HOP-62 = system: HOP-62
# SW-620 = system: SW-620
# TK-10 = system: TK-10
# MDA-MB-231 = system: MDA-MB-231
# SK-MEL-28 = system: SK-MEL-28
# ACHN = system: ACHN
# NCI-H460 = system: NCI-H460
# Malme-3M = system: Malme-3M
# IGROV-1 = system: IGROV-1
# NCI-H23 = system: NCI-H23
# RPMI-8226 = system: RPMI-8226
# Hs-578T = system: Hs-578T
# LOX IMVI = system: LOX IMVI
# HL-60 = system: HL-60
# SK-MEL-5 = system: SK-MEL-5
# MOLT-4 = system: MOLT-4
structure (smiles),measurement,setting,value
C=C1CC23CCC4C(C)(C(=O)O)CCCC4(C)C2CCC1C3 (configuration not stated),GI50,SR,33.3 µM (inactive)
same,GI50,K562,46.3 µM (inactive)
same,GI50,HOP-92,32.8 µM (inactive)
same,GI50,CAKI-1,22.3 µM (inactive)
same,GI50,SNB-19,53.1 µM (inactive)
same,GI50,SK-OV-3,44.5 µM (inactive)
same,GI50,MDA-N,64 µM (inactive)
same,GI50,UO-31,28.8 µM (inactive)
same,GI50,SNB-75,47.8 µM (inactive)
same,GI50,UACC-257,36.8 µM (inactive)
same,GI50,786-0,40.6 µM (inactive)
same,GI50,RXF 393,33.5 µM (inactive)
same,GI50,SF-268,63.1 µM (inactive)
same,GI50,HCT-116,32.7 µM (inactive)
same,GI50,A549,35.5 µM (inactive)
same,GI50,NCI-H522,23.8 µM (inactive)
same,GI50,NCI-H226,55.7 µM (inactive)
same,GI50,T47D,38 µM (inactive)
same,GI50,OVCAR-4,58.5 µM (inactive)
same,GI50,COLO 205,19.7 µM (inactive)
same,GI50,OVCAR-8,41.7 µM (inactive)
same,GI50,PC-3,37.7 µM (inactive)
same,GI50,EKVX,20.6 µM (inactive)
same,GI50,SN12C,38 µM (inactive)
same,GI50,M14,56 µM (inactive)
same,GI50,SF-539,74 µM (inactive)
same,GI50,MDA-MB-435,62.1 µM (inactive)
same,GI50,OVCAR-3,30.4 µM (inactive)
same,GI50,DU-145,65.3 µM (inactive)
same,GI50,HCC 2998,17.1 µM (inactive)
same,GI50,KM12,41.6 µM (inactive)
same,GI50,HCT-15,36.2 µM
same,GI50,SF-295,35.3 µM (inactive)
same,GI50,SK-MEL-2,42.3 µM (inactive)
same,GI50,CCRF-CEM,25.1 µM (inactive)
same,GI50,U-251,48.1 µM (inactive)
same,GI50,MCF7,47.3 µM (inactive)
same,GI50,A498,39.5 µM (inactive)
same,GI50,BT-549,26.3 µM (inactive)
same,GI50,HT-29,42.7 µM (inactive)
same,GI50,OVCAR-5,95.3 µM (inactive)
same,GI50,UACC-62,52.4 µM (inactive)
same,GI50,HOP-62,> 100 µM (inactive)
same,GI50,SW-620,30.3 µM (inactive)
same,GI50,TK-10,38.4 µM (inactive)
same,GI50,MDA-MB-231,25.9 µM (inactive)
same,GI50,SK-MEL-28,> 100 µM (inactive)
same,GI50,ACHN,36.5 µM (inactive)
same,GI50,NCI-H460,21 µM (inactive)
same,GI50,Malme-3M,94 µM (inactive)
same,GI50,IGROV-1,24.4 µM (inactive)
same,GI50,NCI-H23,41.9 µM (inactive)
same,GI50,RPMI-8226,47.4 µM (inactive)
same,GI50,Hs-578T,44.3 µM (inactive)
same,GI50,LOX IMVI,30.7 µM (inactive)
CC(=O)Oc1ccc2cc(Oc3ccc(Cl)cc3)c(=O)oc2c1,GI50,SR,64.7 µM (inactive)
same,GI50,HOP-92,38.1 µM (inactive)
same,GI50,CAKI-1,53 µM (inactive)
same,GI50,SNB-19,60.4 µM (inactive)
same,GI50,MDA-N,25.6 µM (inactive)
same,GI50,UO-31,30.6 µM (inactive)
same,GI50,SNB-75,75.5 µM (inactive)
same,GI50,UACC-257,24.1 µM (inactive)
same,GI50,786-0,36.1 µM (inactive)
same,GI50,RXF 393,46.9 µM (inactive)
same,GI50,SF-268,53.8 µM (inactive)
same,GI50,HCT-116,27.5 µM (inactive)
same,GI50,A549,21.6 µM (inactive)
same,GI50,NCI-H522,22.3 µM (inactive)
same,GI50,NCI-H226,41.5 µM (inactive)
same,GI50,T47D,34.1 µM (inactive)
same,GI50,OVCAR-4,58.2 µM (inactive)
same,GI50,OVCAR-8,19.1 µM (inactive)
same,GI50,PC-3,28.2 µM (inactive)
same,GI50,HL-60,49.4 µM (inactive)
same,GI50,EKVX,36.5 µM (inactive)
same,GI50,SN12C,29.6 µM (inactive)
same,GI50,M14,49.9 µM (inactive)
same,GI50,SF-539,33.3 µM (inactive)
same,GI50,OVCAR-3,19.2 µM (inactive)
same,GI50,DU-145,53.6 µM (inactive)
same,GI50,HCC 2998,35.8 µM (inactive)
same,GI50,KM12,37.8 µM (inactive)
same,GI50,HCT-15,28.8 µM
same,GI50,SF-295,33.6 µM (inactive)
same,GI50,U-251,42.8 µM (inactive)
same,GI50,MCF7,32.7 µM (inactive)
same,GI50,A498,25.2 µM (inactive)
same,GI50,BT-549,25.9 µM (inactive)
same,GI50,HT-29,63.7 µM (inactive)
same,GI50,OVCAR-5,> 100 µM (inactive)
same,GI50,HOP-62,58.2 µM (inactive)
same,GI50,SW-620,40.8 µM (inactive)
same,GI50,TK-10,> 100 µM (inactive)
same,GI50,MDA-MB-231,44.3 µM (inactive)
same,GI50,SK-MEL-28,41.5 µM (inactive)
same,GI50,ACHN,38.8 µM (inactive)
same,GI50,NCI-H460,40.7 µM (inactive)
same,GI50,Malme-3M,25 µM (inactive)
same,GI50,SK-MEL-5,20.4 µM (inactive)
same,GI50,IGROV-1,30.1 µM (inactive)
same,GI50,NCI-H23,41.4 µM (inactive)
same,GI50,RPMI-8226,34.8 µM (inactive)
same,GI50,Hs-578T,79.1 µM (inactive)
same,GI50,LOX IMVI,37.9 µM (inactive)
CC1=Nc2c(N)nc(N)nc2N(C)C1,GI50,K562,> 100 µM (inactive)
same,GI50,CAKI-1,> 100 µM (inactive)
same,GI50,SNB-19,> 100 µM (inactive)
same,GI50,SK-OV-3,> 100 µM (inactive)
same,GI50,MDA-N,> 100 µM (inactive)
same,GI50,UO-31,74.3 µM (inactive)
same,GI50,SNB-75,> 100 µM (inactive)
same,GI50,UACC-257,> 100 µM (inactive)
same,GI50,RXF 393,> 100 µM (inactive)
same,GI50,SF-268,> 100 µM (inactive)
same,GI50,NCI-H226,> 100 µM (inactive)
same,GI50,T47D,> 100 µM (inactive)
same,GI50,COLO 205,> 100 µM (inactive)
same,GI50,OVCAR-8,> 100 µM (inactive)
same,GI50,PC-3,> 100 µM (inactive)
same,GI50,HL-60,> 100 µM (inactive)
same,GI50,EKVX,> 100 µM (inactive)
same,GI50,SN12C,> 100 µM (inactive)
same,GI50,M14,> 100 µM (inactive)
same,GI50,SF-539,> 100 µM (inactive)
same,GI50,MDA-MB-435,> 100 µM (inactive)
same,GI50,OVCAR-3,> 100 µM (inactive)
same,GI50,DU-145,> 100 µM (inactive)
same,GI50,KM12,> 100 µM (inactive)
same,GI50,HCT-15,> 100 µM
same,GI50,SF-295,> 100 µM (inactive)
same,GI50,SK-MEL-2,> 100 µM (inactive)
same,GI50,CCRF-CEM,> 100 µM (inactive)
same,GI50,U-251,> 100 µM (inactive)
same,GI50,MOLT-4,> 100 µM (inactive)
same,GI50,MCF7,> 100 µM (inactive)
same,GI50,BT-549,> 100 µM (inactive)
same,GI50,OVCAR-5,> 100 µM (inactive)
same,GI50,UACC-62,> 100 µM (inactive)
same,GI50,HOP-62,> 100 µM (inactive)
same,GI50,SW-620,> 100 µM (inactive)
same,GI50,TK-10,> 100 µM (inactive)
same,GI50,MDA-MB-231,> 100 µM (inactive)
same,GI50,SK-MEL-28,> 100 µM (inactive)
same,GI50,ACHN,> 100 µM (inactive)
same,GI50,NCI-H460,> 100 µM (inactive)
same,GI50,Malme-3M,> 100 µM (inactive)
same,GI50,SK-MEL-5,> 100 µM (inactive)
same,GI50,IGROV-1,> 100 µM (inactive)
same,GI50,NCI-H23,> 100 µM (inactive)
same,GI50,RPMI-8226,> 100 µM (inactive)
same,GI50,Hs-578T,> 100 µM (inactive)
